Source: patent US6787552B2, “PPAR delta activators” (Nippon Chemiphar Co., Ltd., priority 2000, dated 2004)

What was measured:
PPARα = molecular target: T1, PPARα (Homo sapiens, UniProt Q07869); assay: PPARα transactivation activity (GAL4-hPPARα LBD / UASx4-TK-LUC reporter in CV-1 cells); assay type: cell-based; conditions: for Emax: CV-1, in the manner as described in Example 9, Table 26, read-out: PPARα (PPAR activating power); for PPARα transactivation activity: a relative value (control = 100%): compound at 10^−5 M, CV-1 cells, Table 25
T1 construct: Receptor expression plasmid (GAL4-hPPARα, LBD GAL4-hPPARγ LBD, GAL4-hPPARδ LBD); expressed in transfected cells; host or cells: CV-1 cells
T1 sequence (Q07869 239-466 limits assumed): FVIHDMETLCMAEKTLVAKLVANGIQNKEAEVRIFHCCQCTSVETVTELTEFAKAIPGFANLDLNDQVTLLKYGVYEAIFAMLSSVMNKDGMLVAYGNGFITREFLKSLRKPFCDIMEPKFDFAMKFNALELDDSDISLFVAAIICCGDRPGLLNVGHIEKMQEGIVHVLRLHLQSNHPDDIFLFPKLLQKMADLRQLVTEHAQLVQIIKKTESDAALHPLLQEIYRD
Method: (§1) (1) Measurement of PPARα,γ,δ Transactivation Activity
(§2) PPARα,γ,δ transactivation activity of each compound [Examples 1-6 and known PPARδ agonist (L-16504: Berger, J., et al. (1999), J. Biol. Chem., 274:6718-6725)] was measured in the manner described below.
(§3) CV-1 was obtained from Tohoku University Aging Medical Laboratory, Medical Cell Collection Center. All test compounds were dissolved in dimethylsulfoxide (DMSO) to give a test sample of 0.1% concentration.
(§4) Receptor expression plasmid (GAL4-hPPARα, LBD GAL4-hPPARγ LBD, GAL4-hPPARδ LBD), Reporter plasmid (UASx4-TK-LUC), and β-galactosidase expression plasmid (βGAL) similar to Kliewer, S. A., et al., ((1992) Nature, 358:771-774) were employed.
(§5) CV-1 cells were seeded in 24 well culture plates at 2×10^5 cells per well, and cultured for 24 hours using 4%-fetal bovine serum(FBS)-added OPTI-MEM I Reduced Serum Medium (Life Technologies, 500 μL/well). Subsequently, the cells were washed with non serum-added OPTI-MEM. To the washed cells were added DNA-containing solution [the following components were contained in the one well solution (250 μl): 0.03 μg of GAL4-hPPARδ LBD, 0.25 μg of UASx4-TK-LUC, 0.35 μg of βGAL, and 2 μL of lipofection reagent, DMRIE-C (Life Technologies). These components were dissolved in OPTI-MEM and allowed to stand for 30 minutes at room temperature]. The cells were incubated for 5 hours at 37° C.
(§6) The cells were then incubated for 40 hours in 500 μL of fresh OPTI-MEM containing 4% FBS and the test compound (dissolved in 100% DMSO to reach a final concentration: 10^−4M or 10^−5M).
(§7) The culture medium was removed and the cells were washed with PBS twice. Cell lysates were produced using a solubilizing buffer (25 mM Tris-PO4 (pH 7.8), 15%v/v glycerol, 2% CHAPS, 1% Lecithin, 1% BSA, 4 mM EGTA (pH 8.0), 8 mM MgCl2, 1 mM DTT). A portion (20 μL) of the solution was transferred onto a 96-well plate. Subsequently, 100 μL of luciferase substrate solution (Piccagene: available from Nippon Gene Co., Ltd.) was added, and a luminous intensity per one sec. (luciferase activity) was measured by means of MLR-100 type Microluminoreader (available from Corona Electrics Co., Ltd.). Further, the activity caused by […] incorporation which was incorporated into the cells simultaneously with the incorporation of the luciferase gene was measured, for correcting variation of luciferase activity by the addition of the compound, utilizing the transfection efficiency of the incorporated gene. β-Galactosidase activity was measured by the following method: 50 μL of the solubilized sample was placed on another 96-well plate; 10 μL of ONPG (2-nitrophenyl-β-galactopyranoside) solution was added; incubation was carried out for 5 minutes at room temperature; 50 μL of a reaction stopping solution (1M sodium carbonate solution) was added; and the absorbance at 414 nm was measured.

PPARγ = molecular target: T2, PPARγ (Homo sapiens, UniProt P37231); assay: PPARγ transactivation activity (GAL4-hPPARγ LBD / UASx4-TK-LUC reporter in CV-1 cells); assay type: cell-based; conditions: for Emax: CV-1, in the manner as described in Example 9, Table 26, read-out: PPARγ (PPAR activating power); for PPARγ transactivation activity: a relative value (control = 100%): compound at 10^−5 M, CV-1 cells, Table 25
T2 construct: Receptor expression plasmid (GAL4-hPPARα, LBD GAL4-hPPARγ LBD, GAL4-hPPARδ LBD); expressed in transfected cells; host or cells: CV-1 cells
T2 sequence (P37231 238-503 limits assumed): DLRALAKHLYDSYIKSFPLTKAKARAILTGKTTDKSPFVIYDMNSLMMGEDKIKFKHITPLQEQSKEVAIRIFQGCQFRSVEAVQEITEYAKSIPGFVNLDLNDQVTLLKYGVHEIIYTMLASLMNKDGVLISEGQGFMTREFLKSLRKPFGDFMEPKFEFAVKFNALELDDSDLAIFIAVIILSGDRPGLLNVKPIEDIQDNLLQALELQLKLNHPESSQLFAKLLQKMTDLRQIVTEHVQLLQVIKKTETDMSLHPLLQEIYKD
Method: In the same manner, relative ligand activities to PPARδ and γ transactivation activitis are calculated (see the below-mentioned Example 9).
as §1, §2, §3, §4, §5, §6, §7

PPARδ = molecular target: T3, PPARδ (Homo sapiens, UniProt Q03181); assay: PPARδ transactivation activity (GAL4-hPPARδ LBD / UASx4-TK-LUC reporter in CV-1 cells); assay type: cell-based; conditions: for Emax: CV-1, 40 h, in the manner as described in Example 9, Table 26, read-out: PPARδ (PPAR activating power); for activity to PPARδ relative to activity to PPARα and γ (selectivity): GAL4-hPPAR LBD reporter, relative activities vs control reagents; for PPARδ transactivation activity: a relative value (control = 100%): compound at 10^−5 M, Table 25
T3 construct: A chimeric receptor expression plasmid (GAL4-hPPARδ LBD); expressed in transfected cells; host or cells: CV-1 cells
T3 sequence (Q03181 211-439 limits assumed): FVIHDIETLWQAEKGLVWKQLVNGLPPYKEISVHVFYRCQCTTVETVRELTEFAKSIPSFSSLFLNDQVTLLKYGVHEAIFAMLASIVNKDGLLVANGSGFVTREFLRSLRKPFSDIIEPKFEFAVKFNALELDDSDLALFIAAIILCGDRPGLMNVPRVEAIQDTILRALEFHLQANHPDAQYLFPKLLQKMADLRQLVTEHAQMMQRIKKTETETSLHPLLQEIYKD
Method: A chimeric receptor expression plasmid (GAL4-hPPARδ LBD), a reporter plasmid (UASx4-TK-LUC) and β-galactosidase (β-GAL) are transfected into CV-1 cells by utilizing a lipofection reagent DMRIE-C (Life Technologies).
as §1
CV-1 was obtained from Tohoku University Aging Medical Laboratory, Medical Cell Collection Center.
as §5, §6, §7

| Compound | Emax (PPARα) [%] | Emax (PPARγ) [%] | Emax (PPARδ) [%] | activity to PPARδ relative to activity to PPARα and γ (selectivity) (PPARδ; CV-1 cells) | melting point [°C] | PPARδ activating effect (transactivation activity) as compared with L-165041 (PPARδ; CV-1 cells, GAL4-hPPARδ LBD, 40 hours incubation, luciferase activity with 10^-4 M L-165041 set to 100%) | PPARα transactivation activity: a relative value (control = 100%) (PPARα) [%] | PPARγ transactivation activity: a relative value (control = 100%) (PPARγ) [%] | PPARδ transactivation activity: a relative value (control = 100%) (PPARδ; CV-1 cells) [%] |
| --- | --- | --- | --- | --- | --- | --- | --- | --- | --- |
| CC(C)c1oc(-c2ccccc2Cl)nc1CCC(=O)c1ccc(OC(C)(C)C(=O)O)cc1 [Example 1, 2-[4-[3-[2-(2-Chlorophenyl)-5-isopropyl-4-oxazolyl]propionyl]phenyloxy]-2-methylpropionic acid] |  |  |  | selectively higher |  |  | 9 ± 1 | 27 ± 3 | 80 ± 10 |
| CCCc1oc(-c2ccc(Cl)cc2)nc1CCC(=O)c1ccc(OC(C)(C)C(=O)O)cc1 [Example 2, 2-[4-[3-[2-(4-Chlorophenyl)-5-propyl-4-oxazolyl]propionyl]phenyloxy]-2-methylpropionic acid] |  |  |  |  |  |  | 75 ± 4 | 51 ± 3 | 93 ± 4 |
| CC(C)c1oc(-c2ccccc2Cl)nc1CCC(=NO)c1ccc(OC(C)(C)C(=O)O)cc1 [Example 3, 2-[4-[3-[2-(2-Chlorophenyl)-5-isopropyl-4-oxazolyl](1-hydroxyimino)propyl]phenyloxy]-2-methyl-propionic acid] |  |  |  |  |  |  | 10 | 16 | 19 |

Results, then the molecule that gave them:

| Emax (PPARα) [%] | Emax (PPARγ) [%] | Emax (PPARδ) [%] | activity to PPARδ relative to activity to PPARα and γ (selectivity) (PPARδ; CV-1 cells) | melting point [°C] | PPARδ activating effect (transactivation activity) as compared with L-165041 (PPARδ; CV-1 cells, GAL4-hPPARδ LBD, 40 hours incubation, luciferase activity with 10^-4 M L-165041 set to 100%) | PPARα transactivation activity: a relative value (control = 100%) (PPARα) [%] | PPARγ transactivation activity: a relative value (control = 100%) (PPARγ) [%] | PPARδ transactivation activity: a relative value (control = 100%) (PPARδ; CV-1 cells) [%] | Compound |
| --- | --- | --- | --- | --- | --- | --- | --- | --- | --- |
| 1 | 2 | 86 ± 10 | higher | 100 to 105 |  |  |  |  | CC(C)c1oc(-c2ccc(Cl)cc2Cl)nc1CCC(=O)c1ccc(OC(C)(C)C(=O)O)cc1 [Example 7-4, 2-[4-[3-[2-(2,4-Dichlorophenyl)-5-isopropyl-4-oxazolyl]propionyl]phenyloxy]-2-methylpropionic acid] |
|  |  |  |  | 115 to 120 |  |  |  |  | CC(C)c1oc(-c2ccc(Cl)cc2Cl)nc1CCC(=O)c1cccc(OC(C)(C)C(=O)O)c1 [Example 8-2, 2-[3-[3-[2-(2,4-Dichlorophenyl)-5-isopropyl-4-oxazolyl]propionyl]phenyloxy)-2-methylpropionic acid] |
| 8 | 19 | 96 ± 13 |  |  | same or higher |  |  |  | CC(C)c1oc(-c2cccc(Cl)c2Cl)nc1CCC(=O)c1ccc(OC(C)(C)C(=O)O)cc1 [Example 7-6, 2-[4-[3-[2-(2,3-Dichlorophenyl)-5-isopropyl-4-oxazolyl]propionyl]phenyloxy]-2-methylpropionic acid] |
| 3 | 1 | 70 |  |  |  |  |  |  | CC(C)c1oc(-c2ccc(Cl)cc2Cl)nc1CC=Cc1ccc(OC(C)(C)C(=O)O)cc1 [Example 7-10, 2-[4-[3-[2-(2,4-Dichlorophenyl)-5-isopropyl-4-oxazolyl]-1-propenyl]phenyloxy]-2-methylpropionic acid] |
| 1 | 9 | 65 ± 2 |  | 135 to 139 |  |  |  |  | CC(C)c1oc(-c2cc3ccccc3o2)nc1CCC(=O)c1ccc(OC(C)(C)C(=O)O)cc1 [Example 7-7, 2-[4-[3-[2-(2-Benzofuranyl)-5-isopropyl-4-oxazolyl]propionyl]phenyloxy]-2-methylpropionic acid] |
| 29 ± 3 | 18 ± 4 | 85 ± 1 |  |  |  |  |  |  | CC(C)c1oc(-c2cc3ccccc3cc2O)nc1CCC(=O)c1ccc(OC(C)(C)C(=O)O)cc1 [Example 7-11, 2-[4-[3-[2-(3-Hydroxy-2-naphthyl)-5-isopropyl-4-oxazolyl]propionyl]phenyloxy]-2-methylpropionic acid] |
